According to patent US8232406B2, “c-MET protein kinase inhibitors” (Vertex Pharmaceuticals Incorporated, priority 2006, dated 2012):

Molecular target: c-MET (Homo sapiens, UniProt P08581)
Assay: Ki determination for the inhibition of c-MET (standard radiometric 33P-ATP kinase assay, polyE4Y substrate)
Assay type: biochemical
Settings: 1.0 nM c-Met, 35 μM ATP, 0.5 mg/mL polyE4Y, 20 min; competitive tight-binding fit
How it was run: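 Radiometric assay of 33P transfer from 33P-ATP (35 μM) to polyE4Y (0.5 mg/mL) by 1.0 nM c-Met in 100 mM HEPES pH 7.5, 10 mM MgCl2, 25 mM NaCl, 0.01% BSA, 1 mM DTT. TCA-quenched after 20 min, filter-captured, scintillation-counted; Ki fitted to a competitive tight-binding model.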

c-MET, sequence (P08581 25-1390): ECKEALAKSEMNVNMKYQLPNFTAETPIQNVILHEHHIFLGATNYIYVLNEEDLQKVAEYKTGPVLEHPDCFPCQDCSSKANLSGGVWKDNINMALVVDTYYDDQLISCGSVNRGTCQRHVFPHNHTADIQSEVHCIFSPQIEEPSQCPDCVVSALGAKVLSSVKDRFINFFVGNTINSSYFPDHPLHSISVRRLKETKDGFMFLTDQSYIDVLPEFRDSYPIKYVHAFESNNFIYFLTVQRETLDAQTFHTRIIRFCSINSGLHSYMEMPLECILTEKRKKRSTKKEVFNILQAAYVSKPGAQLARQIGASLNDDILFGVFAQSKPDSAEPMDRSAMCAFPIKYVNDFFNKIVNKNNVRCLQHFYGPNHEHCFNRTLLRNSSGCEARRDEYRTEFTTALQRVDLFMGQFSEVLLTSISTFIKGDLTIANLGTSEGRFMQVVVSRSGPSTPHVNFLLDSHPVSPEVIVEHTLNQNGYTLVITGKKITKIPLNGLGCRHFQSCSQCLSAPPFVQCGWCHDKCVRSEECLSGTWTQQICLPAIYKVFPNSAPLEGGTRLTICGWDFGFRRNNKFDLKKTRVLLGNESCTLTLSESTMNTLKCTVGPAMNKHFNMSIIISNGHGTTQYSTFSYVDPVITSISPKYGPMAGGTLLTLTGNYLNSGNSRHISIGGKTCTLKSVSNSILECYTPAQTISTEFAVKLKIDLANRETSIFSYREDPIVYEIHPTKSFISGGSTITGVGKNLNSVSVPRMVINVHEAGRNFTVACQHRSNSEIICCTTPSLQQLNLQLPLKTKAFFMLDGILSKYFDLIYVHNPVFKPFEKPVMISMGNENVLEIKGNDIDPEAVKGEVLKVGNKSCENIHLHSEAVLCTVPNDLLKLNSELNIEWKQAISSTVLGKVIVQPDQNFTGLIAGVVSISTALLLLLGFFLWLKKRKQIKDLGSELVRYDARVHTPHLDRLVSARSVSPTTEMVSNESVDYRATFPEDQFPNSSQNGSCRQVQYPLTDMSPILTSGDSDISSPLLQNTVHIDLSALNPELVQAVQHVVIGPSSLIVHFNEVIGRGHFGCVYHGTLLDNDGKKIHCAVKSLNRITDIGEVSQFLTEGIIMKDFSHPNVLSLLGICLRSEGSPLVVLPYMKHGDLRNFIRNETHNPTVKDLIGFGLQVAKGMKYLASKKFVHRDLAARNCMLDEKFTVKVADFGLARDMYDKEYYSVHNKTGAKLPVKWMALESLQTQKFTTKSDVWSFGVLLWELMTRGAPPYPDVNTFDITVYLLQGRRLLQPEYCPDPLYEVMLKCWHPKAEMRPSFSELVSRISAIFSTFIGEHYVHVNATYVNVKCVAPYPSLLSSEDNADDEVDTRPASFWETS

SMILES	Ki [nM]
Nc1ncc(-c2cccc(N3CCNCC3)c2)cc1-c1nccn1-c1cccc(Cl)c1Cl [I-A-401]	≤ 100
CN(C)Cc1ccc(-c2cnc(N)c(-c3nnnn3-c3cc(F)ccc3F)c2)cc1 [I-A-580]	100 to 1000
CN(C)Cc1ccc(-c2cnc(N)c(-c3nnnn3-c3cccc(F)c3F)n2)cc1 [I-A-48]	≤ 100
N#CCN1CCC(n2cc(-c3cnc(N)c(-c4nnnn4-c4cccc(F)c4F)c3)cn2)CC1 [I-A-462]	≤ 100
CS(=O)(=O)c1ccc(-c2cnc(N)c(-c3nnnn3-c3cccc(F)c3F)c2)cc1 [I-A-250]	≤ 100
CC(=O)Nc1ccc(-c2cnc(N)c(-c3nnnn3-c3cc(F)cc(F)c3Cl)c2)cc1 [I-A-583]	100 to 1000
Cc1ccc(-c2cnc(N)c(-c3nnnn3-c3cccc(F)c3F)c2)cc1 [I-A-255]	100 to 1000
Nc1ncc(-c2cscn2)nc1-c1nnnn1-c1ccccc1F [I-A-541]	100 to 1000
Nc1ncc(-c2cccnc2)cc1-c1nnnn1-c1cccc(F)c1F [I-A-20]	100 to 1000
COc1cc2nc(N)[nH]c2cc1-c1cnc(N)c(-c2nnnn2-c2cccc(F)c2F)n1 [I-A-54]	≤ 100
CCOC(=O)CC(=O)Nc1ccc(-c2cnc(N)c(-c3nnnn3-c3cccc(F)c3F)c2)cc1 [I-A-196]	100 to 1000
Nc1ncc(-c2cnn([C@@H]3CCOC3)c2)cc1-c1nnnn1-c1cccc(F)c1F [I-A-419]	≤ 100
CN(C)Cc1ccc(-c2cnc(N)c(-c3nnnn3-c3cccc(Cl)c3F)c2)cc1 [I-A-360]	≤ 100
COC(=O)C(N)c1ccc(-c2cnc(N)c(-c3nnnn3-c3cccc(F)c3F)c2)cc1 (centres unmarked) [I-A-206]	≤ 100
Nc1ncc(C2=CCN(C(=O)[C@@H]3CCOC3)CC2)cc1-c1nnnn1-c1cccc(F)c1F [I-A-527]	≤ 100
CCCN1CCc2cc(-c3cnc(N)c(-c4nnnn4-c4cccc(F)c4F)c3)sc2CC1 [I-A-519]	≤ 100
COc1ccc(-c2cnc(N)c(-c3nnnn3-c3cccc(F)c3F)c2)cc1F [I-A-290]	≤ 100
Nc1ncc(-c2cnn(C3CCN(CC(F)F)CC3)c2)cc1-c1nncn1-c1cccc(Cl)c1F [I-A-460]	≤ 100
COC(=O)c1ccc(-c2cnc(N)c(-c3nnnn3-c3cccc(F)c3F)c2)cc1 [I-A-316]	100 to 1000
C[C@@H](N)c1ccc(-c2cnc(N)c(-c3nnnn3-c3cccc(F)c3F)c2)cc1 [I-A-153]	≤ 100
CN1CCN(c2ccc(-c3cnc(N)c(-c4ncsc4-c4cccc(Cl)c4Cl)c3)cc2)CC1 [I-C-11]	100 to 1000

SMILES	Ki [nM]
CC(=O)Nc1cccc(-c2cnc(N)c(-c3nnnn3-c3c(F)ccc(F)c3Cl)c2)c1 [I-A-613]	100 to 1000
Nc1ncc(-c2ccoc2)cc1-c1nnnn1-c1cccc(F)c1F [I-A-497]	≤ 100
Nc1ncc(-c2ccn[nH]2)cc1-c1nnnn1-c1cccc(F)c1F [I-A-248]	100 to 1000
Nc1cccc(-c2cnc(N)c(-c3nnnn3-c3cccc(F)c3F)c2)c1 [I-A-201]	≤ 100
CC(=O)Nc1ccc(-c2cnc(N)c(-c3nnnn3-c3c(Cl)cccc3Cl)c2)cc1 [I-A-621]	100 to 1000
Nc1ccc(-c2cnc(N)c(-c3nnnn3-c3cccc(F)c3F)c2)cc1F [I-A-286]	≤ 100
CC(C)c1ccc(-c2cnc(N)c(-c3nnnn3-c3cccc(F)c3F)c2)cc1 [I-A-237]	100 to 1000
Nc1ncc(-c2ccc(CN3CCCC3)cc2)cc1-c1nnnn1-c1cc(Cl)cc(Cl)c1 [I-A-597]	100 to 1000
COc1c(F)cccc1-n1nnnc1-c1cc(-c2cccnc2)cnc1N [I-A-561]	100 to 1000
N#Cc1cccc(-c2cnc(N)c(-c3nnnn3-c3cccc(F)c3F)c2)c1 [I-A-228]	100 to 1000
CC(C)N1CCC(n2cc(-c3cnc(N)c(-c4nncn4-c4cccc(Cl)c4F)c3)cn2)CC1 [I-A-471]	≤ 100
Nc1ncc(-c2cnn([C@H]3CCCNC3)c2)nc1-c1nnnn1-c1cccc(Cl)c1F [I-A-658]	≤ 100
CC(C)(O)Cn1cc(-c2cnc(N)c(-c3nnnn3-c3cccc(F)c3F)c2)cn1 [I-A-348]	≤ 100
Nc1ncc(-c2cccnc2)cc1-c1nc2cnccc2n1-c1cccc(F)c1F [I-D-1]	≤ 100
Nc1ncc(-c2cccc(NC(=O)Nc3cccnc3)c2)cc1-c1nnnn1-c1cccc(F)c1F [I-A-272]	≤ 100
Nc1ncc(-c2ccc(F)c(Cl)c2)cc1-c1nncn1-c1cccc(F)c1F [I-A-111]	100 to 1000
Nc1ncc(-c2cc(F)cc(F)c2)cc1-c1nnnn1-c1cccc(F)c1F [I-A-288]	100 to 1000
Nc1ncc(-c2ccc(CC3(O)CCNCC3)cc2)cc1-c1nnnn1-c1cccc(F)c1F [I-A-157]	≤ 100
CN(C)Cc1ccc(-c2cnc(N)c(-c3nn(CCO)cc3-c3cccc(Cl)c3Cl)c2)cc1 [I-B-14]	100 to 1000
COc1ccc(F)cc1-n1nnnc1-c1cc(-c2ccc(CN(C)C)cc2)cnc1N [I-A-606]	100 to 1000
COC(=O)C(C)(C)c1ccc(-c2cnc(N)c(-c3nnnn3-c3cccc(F)c3F)c2)cc1 [I-A-207]	≤ 100

SMILES	Ki [nM]
CC(=O)Nc1ccc(-c2cnc(N)c(-c3nnnn3-c3cccc(F)c3F)c2)cc1 [I-A-138]	≤ 100
Nc1ncc(-c2cnn(CCN3CCCC3)c2)cc1-c1nc2cnccc2n1-c1cccc(F)c1F [I-D-11]	≤ 100
Cc1ccc(Cl)cc1-n1nnnc1-c1cc(-c2ccc(CN3CCCC3)cc2)cnc1N [I-A-600]	100 to 1000
Nc1ncc(-c2ccc(C3CCNCC3)s2)cc1-c1nnnn1-c1cccc(F)c1F [I-A-415]	≤ 100
CCCN1CCC(n2cc(-c3cnc(N)c(-c4nnnn4-c4cccc(F)c4F)c3)cn2)CC1 [I-A-461]	≤ 100
Nc1ncc(-c2cnn([C@@H]3CCCNC3)c2)cc1-c1nnnn1-c1cccc(Cl)c1Cl [I-A-418]	≤ 100
Nc1ncc(-c2cccc(NC(=O)NC3CCCC3)c2)cc1-c1nnnn1-c1cccc(F)c1F [I-A-329]	≤ 100
Nc1ncc(C2=CCC(N)CC2)cc1-c1nnnn1-c1cccc(F)c1F (centres unmarked) [I-A-158]	≤ 100
CC(c1ccc(-c2cnc(N)c(-c3nnnn3-c3cccc(F)c3F)c2)cc1)N1CCCC1 (centres unmarked) [I-A-180]	≤ 100
CC(=O)Nc1ccc(-c2cnc(N)c(-c3nnnn3-c3cccc(Cl)c3Cl)c2)cc1 [I-A-81]	≤ 100
Nc1ncc(-c2ccc(CN3CCCC3)s2)cc1-c1nnnn1-c1cccc(F)c1F [I-A-186]	≤ 100
Nc1ncc(-c2ccnc(F)c2)cc1-c1nnnn1-c1cccc(F)c1F [I-A-319]	100 to 1000
Nc1ncc(-c2cccc(F)c2F)cc1-c1nnnn1-c1cccc(F)c1F [I-A-301]	100 to 1000
Nc1ncc(C2=CCN(C(=O)c3cccnc3)CC2)cc1-c1nnnn1-c1cccc(F)c1F [I-A-507]	≤ 100
Nc1ncc(-c2ccc(N3CC(=O)NC3=O)cc2)cc1-c1nnnn1-c1cccc(F)c1F [I-A-256]	≤ 100
Nc1ncc(-c2cn[nH]c2)cc1-c1nncn1-c1cccc(Cl)c1F [I-A-439]	100 to 1000
N#Cc1ccc(-c2cnc(N)c(-c3nnnn3-c3cccc(F)c3F)c2)cc1 [I-A-229]	100 to 1000
CN1C[C@@H]2C[C@H]1CN2c1ccc(-c2cnc(N)c(-c3nncn3-c3cccc(F)c3F)n2)cc1 [I-A-9]	≤ 100
CC(C)N1CCC(n2cc(-c3cnc(N)c(-c4nnnn4-c4cccc(F)c4F)c3)cn2)CC1 [I-A-448]	≤ 100
NCN1CCN(Cc2ccc(-c3cnc(N)c(-c4nnnn4-c4cccc(Cl)c4Cl)c3)cc2)CC1 [I-A-108]	≤ 100
CC1CN(Cc2ccc(-c3cnc(N)c(-c4nnnn4-c4cccc(Cl)c4Cl)c3)cc2)CC(C)O1 (centres unmarked) [I-A-103]	100 to 1000

SMILES	Ki [nM]
CC(=O)Nc1ccc(-c2cnc(N)c(-c3nnnn3-c3c(F)cccc3Cl)c2)cc1 [I-A-639]	100 to 1000
Nc1ncc(-c2cnn(CC3CCNCC3)c2)cc1-c1nnnn1-c1cccc(F)c1F [I-A-502]	≤ 100
CCNC(=O)Nc1nc2cc(F)c(-c3cnc(N)c(-c4nnnn4-c4cccc(F)c4F)n3)cc2[nH]1 [I-A-53]	100 to 1000
Nc1ncc(-c2ccc(NC(=O)CN3CCC[C@H]3CO)cc2)cc1-c1nnnn1-c1cccc(F)c1F [I-A-160]	100 to 1000
CN(C)CCCN(C)Cc1ccc(-c2cnc(N)c(-c3nnnn3-c3cccc(Cl)c3Cl)c2)cc1 [I-A-95]	≤ 100
CC(=O)N1CCC[C@H]1C(=O)N1CC=C(c2cnc(N)c(-c3nnnn3-c3cccc(F)c3F)c2)CC1 [I-A-641]	100 to 1000
Nc1ncc(-c2cnn(C3CCNCC3)c2)cc1-c1nnnn1-c1cc(F)cc(F)c1Cl [I-A-634]	100 to 1000
Nc1ncc(-c2ccc(CO)cc2)cc1-c1nncn1-c1cccc(Cl)c1Cl [I-A-78]	100 to 1000
N#Cc1cccc(-c2cnc(N)c(-c3nncn3-c3cccc(F)c3F)n2)c1 [I-A-30]	100 to 1000
CC(=O)Nc1ccc(-c2cnc(N)c(-c3nnnn3-c3cccc(Cl)c3C)c2)cc1 [I-A-575]	100 to 1000
CCN1CCC(n2cc(-c3cnc(N)c(-c4nncn4-c4cccc(Cl)c4F)c3)cn2)CC1 [I-A-458]	≤ 100
Nc1ncc(-c2ccc(CN3CCCC3)cc2)cc1-c1nnnn1-c1cccc(Cl)c1F [I-A-343]	≤ 100
COCCOC(=O)Nc1cccc(-c2cnc(N)c(-c3nnnn3-c3cccc(F)c3F)c2)c1 [I-A-271]	100 to 1000
Nc1ncc(-c2cnn([C@H]3CCCNC3)c2)cc1-c1nnnn1-c1cccc(F)c1F [I-A-405]	≤ 100
Nc1ncc(-c2cccc(NC(=O)N3CCCC3)c2)cc1-c1nnnn1-c1cccc(F)c1F [I-A-269]	100 to 1000
CN(C)Cc1ccc(-c2cnc(N)c(-c3nnnn3-c3cc(Cl)ccc3F)c2)cc1 [I-A-593]	100 to 1000
Nc1ncc(C2=CCN(C(=O)[C@@H]3CCC(=O)N3)CC2)cc1-c1nnnn1-c1cccc(F)c1F [I-A-642]	≤ 100
CC(=O)Nc1cccc(-c2cnc(N)c(-n3nnnc3-c3cccc(F)c3F)c2)c1 [I-E-5]	100 to 1000
CCCN(CCC)Cc1ccc(-c2cnc(N)c(-c3nnnn3-c3cccc(F)c3F)c2)cc1 [I-A-156]	≤ 100
Nc1ncc(-c2ccc(CN3CCCC3)cc2)cc1-c1nnnn1-c1cccc(Cl)c1Cl [I-A-94]	≤ 100
